# Assay results published in patent US20050014789A1, “Amide derivatives as selective serotonin re-uptake inhibitors” (Pfizer Inc, priority 2003, published 2005).
# Tests used:
# Assay type in all cases: cell-based
# [1] = target: T1, dopamine transporter (hDAT) (Homo sapiens, UniProt Q01959); assay: Inhibition of 3H-dopamine uptake in HEK-293 cells expressing hDAT
# T1 construct: expressed in transfected cells
# Protocol: (§1) Cells were harvested for the assay to yield a cell suspension of 750,000 cells/ml. […] Assays were carried out in 96-well filter bottom plates. […] All reactions were carried out at room temperature in a shaking incubator. Incubation times were 5 minutes for the hSERT and hDAT assays and 15 minutes for the hNET assay. Reactions were terminated by removal of the reaction mixture using a vacuum manifold followed by rapid washing with ice cold assay buffer. The quantity of ^3H-substrate incorporated into the cells was then quantified. Assay plates were dried in a microwave oven, scintillation fluid added, and radioactivity measured. […] Note: The pH of the buffer was adjusted to 7.40 with 1M NaOH before addition of CaCl2 and pargyline.
# [2] = target: T2, human serotonin transporter (hSERT) (Homo sapiens, UniProt P31645); assay: Inhibition of 3H-serotonin uptake in HEK-293 cells expressing hSERT; conditions: HEK-293 hSERT cells, 3H-5HT 50 nM, 5 min incubation; read-out: serotonin re-uptake inhibition (SRI) IC50
# T2 construct: expressed in transfected cells
# Protocol: as §1
# [3] = target: T3, noradrenaline transporter (hNET) (Homo sapiens, UniProt P23975); assay: Inhibition of 3H-noradrenaline uptake in HEK-293 cells expressing hNET
# T3 construct: expressed in transfected cells
# Protocol: Cells were harvested for the assay to yield a cell suspension of 750,000 cells/ml. All test compounds were dissolved in 100% DMSO and diluted down in assay buffer to give appropriate test concentrations. Assays were carried out in 96-well filter bottom plates. […] All reactions were carried out at room temperature in a shaking incubator. Incubation times were 5 minutes for the hSERT and hDAT assays and 15 minutes for the hNET assay. Reactions were terminated by removal of the reaction mixture using a vacuum manifold followed by rapid washing with ice cold assay buffer. The quantity of ^3H-substrate incorporated into the cells was then quantified. Assay plates were dried in a microwave oven, scintillation fluid added, and radioactivity measured. […] Note: The pH of the buffer was adjusted to 7.40 with 1M NaOH before addition of CaCl2 and pargyline. [table]
# T3 sequence (P23975 whole entry): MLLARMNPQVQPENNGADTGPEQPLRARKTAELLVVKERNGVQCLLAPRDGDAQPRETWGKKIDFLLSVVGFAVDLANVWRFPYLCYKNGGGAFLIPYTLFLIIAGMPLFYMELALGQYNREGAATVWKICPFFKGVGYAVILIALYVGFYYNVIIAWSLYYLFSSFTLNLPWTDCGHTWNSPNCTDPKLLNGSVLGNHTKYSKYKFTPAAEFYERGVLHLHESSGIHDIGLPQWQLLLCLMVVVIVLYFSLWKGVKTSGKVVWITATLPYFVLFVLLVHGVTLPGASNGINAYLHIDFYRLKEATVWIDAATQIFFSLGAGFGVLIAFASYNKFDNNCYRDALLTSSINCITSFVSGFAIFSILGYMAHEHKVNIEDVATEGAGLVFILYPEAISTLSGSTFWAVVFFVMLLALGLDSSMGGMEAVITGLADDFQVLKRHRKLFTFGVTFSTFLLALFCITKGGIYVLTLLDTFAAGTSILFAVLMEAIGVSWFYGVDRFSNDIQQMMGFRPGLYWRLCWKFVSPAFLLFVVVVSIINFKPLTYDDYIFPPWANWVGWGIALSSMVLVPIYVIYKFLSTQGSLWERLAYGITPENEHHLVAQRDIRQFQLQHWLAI
# T1 sequence (Q01959 whole entry): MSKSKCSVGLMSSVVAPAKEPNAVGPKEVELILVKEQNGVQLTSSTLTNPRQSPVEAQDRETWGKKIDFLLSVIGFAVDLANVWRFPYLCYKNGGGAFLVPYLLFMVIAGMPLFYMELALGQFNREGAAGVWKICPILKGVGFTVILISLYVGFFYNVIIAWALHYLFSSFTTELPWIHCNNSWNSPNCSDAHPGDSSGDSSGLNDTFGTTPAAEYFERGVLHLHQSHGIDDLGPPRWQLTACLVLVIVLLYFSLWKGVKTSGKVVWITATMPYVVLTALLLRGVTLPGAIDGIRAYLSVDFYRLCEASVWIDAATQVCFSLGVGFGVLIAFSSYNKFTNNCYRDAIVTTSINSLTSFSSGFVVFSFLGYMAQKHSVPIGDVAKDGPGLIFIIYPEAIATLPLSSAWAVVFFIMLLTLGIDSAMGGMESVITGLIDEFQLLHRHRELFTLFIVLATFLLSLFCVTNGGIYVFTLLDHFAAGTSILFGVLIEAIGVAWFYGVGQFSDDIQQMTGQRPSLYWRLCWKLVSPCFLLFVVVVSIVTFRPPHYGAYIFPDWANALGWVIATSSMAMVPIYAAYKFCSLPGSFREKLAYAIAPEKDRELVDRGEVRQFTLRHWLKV
# T2 sequence (P31645 whole entry): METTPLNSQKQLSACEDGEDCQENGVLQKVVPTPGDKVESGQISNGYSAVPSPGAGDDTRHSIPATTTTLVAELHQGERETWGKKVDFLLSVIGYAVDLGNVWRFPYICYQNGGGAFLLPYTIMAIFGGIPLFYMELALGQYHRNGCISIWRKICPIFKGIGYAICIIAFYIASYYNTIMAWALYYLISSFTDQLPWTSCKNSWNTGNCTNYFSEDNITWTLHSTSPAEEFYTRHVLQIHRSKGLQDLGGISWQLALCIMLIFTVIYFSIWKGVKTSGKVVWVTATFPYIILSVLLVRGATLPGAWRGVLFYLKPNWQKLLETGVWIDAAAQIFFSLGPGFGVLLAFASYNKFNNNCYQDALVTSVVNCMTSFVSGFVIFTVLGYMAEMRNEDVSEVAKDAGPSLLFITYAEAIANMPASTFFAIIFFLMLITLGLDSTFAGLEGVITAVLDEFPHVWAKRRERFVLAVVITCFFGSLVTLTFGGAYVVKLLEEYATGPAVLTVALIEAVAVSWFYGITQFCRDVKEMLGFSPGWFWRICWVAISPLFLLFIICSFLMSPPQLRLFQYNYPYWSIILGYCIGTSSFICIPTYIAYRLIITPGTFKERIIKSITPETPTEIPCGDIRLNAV
compound,measurement,setting,value
"CC(C)CN(C(=O)c1ccc2ccccc2c1)[C@@H]1CCNC1.Cl [Example 23, N-Isobutyl-N-[(3R)-pyrrolidin-3-yl]-2-naphthamide hydrochloride]",IC50,"[1]; HEK-293 hDAT cells, 3H-Dopamine 200 nM, 5 min incubation, read-out: dopamine re-uptake inhibition IC50",9490 nM
same,fold more potent (serotonin re-uptake) over dopamine re-uptake,[1]; selectivity hSERT vs hDAT,2018 fold
same,IC50,[2],4.7 nM
same,IC50,"[3]; HEK-293 hNET cells, 3H-Noradrenaline 200 nM, 15 min incubation, read-out: noradrenaline re-uptake inhibition IC50",1230 nM
same,fold more potent (serotonin re-uptake) over noradrenaline re-uptake,[3]; selectivity hSERT vs hNET,261 fold
